Entries after “also recorded” stand apart in the source; their conditions may differ.
How the values were obtained:
[1] = biological target: T1, human PF4 (Homo sapiens, UniProt P02776); assay: Inhibition of PF4 tetramer formation (BS3 cross-linking, SDS-PAGE); type: biochemical; conditions: for IC50: read-out: IC50 of PF4 tetramer formation inhibition; for inhibition at 5 µM: 5 μM inhibitor; for inhibition at 10 µM: 10 μM inhibitor (column A)
T1 construct: PF4 is a 70 amino acid, lysine-rich 7.8 kDa platelet-specific protein; made in house; host or cells: Escherichia coli BL21DE3 pLysS (pT7-7) and/or Drosophila S2 cells
T1 sequence (P02776 32-101): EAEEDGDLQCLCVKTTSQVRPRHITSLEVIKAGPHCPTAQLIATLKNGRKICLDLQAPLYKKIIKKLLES
Outline: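 Monomer, dimer, trimer and tetramer fractions were quantified by densitometry after reducing 12% SDS-PAGE of BS3-cross-linked (0.2 mM, 30 min, room temperature) PF4. Before cross-linking, 10 μg/ml E. coli-expressed human WT PF4 in PBS was exposed to compound for 15 min at 37° C or 60 min at room temperature; controls lacked compound.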

[2] = Human microsome stability; type: in vitro ADME; conditions: for half-life at 0.5 μM: read-out: Human microsome stability Half life t1/2
Source text: (§1) Certain exemplified compounds were examined for ADMET (absorption, distribution, metabolism, excretion and toxicity) profiling using conventional assays with the results shown in the Tables 3A-3C below.

[3] = Mouse microsome stability; type: in vitro ADME; conditions: for half-life at 0.5 μM: Mouse microsomes, compound conc = 0.5 μM, n = 1, read-out: Mouse microsome stability Half life t1/2
Source text: as §1

[4] = system: human platelets; assay: PF4-KKO induced platelet activation, P-selectin, human platelets; type: cell-based; conditions: human platelet activation assays; 20 μM and 40 μM (FIGS. 8 and 9)
[5] = system: FcγRIIA transgenic murine platelets; assay: PF4-KKO induced platelet activation, P-selectin, FcγRIIA transgenic murine platelets; type: cell-based, mouse; conditions: for normalized P-selectin levels: FIG. 22; for preventing P-selectin expression: FcγRIIA transgenic murine platelets, 50 μM compound, 37.5 μg/ml PF4, 50 μg/ml KKO (FIGS. 14-21)
Description: Whole blood was diluted with 1× Tyrode buffer (5 mM N-2-hydroxyethylpiperazine-N′-2-ethanesulfonic acid, 0.1% BSA, 134 mM NaCl, 0.3 mM NaH2PO4, 3 mM KCl, 2 mM MgCl2, 12 mM NaHCO3, 5 mM glucose) with 0.02 U/ml apyrase and 1 μM PGE1 and centrifuged at 100 g for 10 min. Platelet rich plasma (PRP) was carefully removed and centrifuged at 1000 g for 5 min. Platelet pellet was resuspended in Tyrode buffer with 0.02 U/ml apyrase at 2×10^8/ml concentration at 37° C. PF4 antagonists are diluted in Tyrode buffer, and are incubated with 10 μg/ml human PF4 purified protein at room temperature for 30 min. The PF4-drug complex is then incubated with 1×10^8/ml platelets with 1 mM CaCl2, 0.1% BSA at 37° C. for 10 min. 40 μg/ml KKO and 10 μg/ml anti-CD62P (P-selectin) antibodies are added into the reaction. One milliliter ice-cold PBS is added to each reaction after 5 min of incubation. Labelled platelets are then analyzed by a BD Accuri C6 flow cytometer. The results are represented by both the mean fluorescence intensity and by the percentage of positive platelets.
37.5 μg/ml PF4 with/without 50 μM of the exemplified compound incubated with 3×10^7/ml platelets; 50 μg/ml KKO.

[6] = Human microsomes, compound conc = 0.5 μM, n = 1
[7] = read-out: % inhibition of PF4 tetramer formation at single concentration of inhibitor

SMILES | IC50 [1] [nM] | half-life at 0.5 μM [2, 6] [min] | half-life at 0.5 μM [3] [min] | PF4-KKO induced platelet activation using P-selectin as a marker [4] | inhibition at 5 µM [1, 7] [%] | inhibition at 10 µM [1, 7] [%] | normalized P-selectin levels [5] | preventing P-selectin expression [5] | other results
CC(=O)C1C(=O)c2ccc(C(c3ccc4c(c3)C(=O)C(C(C)=O)C4=O)(C(F)(F)F)C(F)(F)F)cc2C1=O (stereo not shown) [Example 11, 2-acetyl-5-[(2-acetyl-2,3-dihydro-1,3dioxo-1h-inden-5-yl)-1,1,1,3,3,3-hexafluoropropan-2-yl]-2,3-dihydro-1,3-dioxo-1h-indene] | 1450 | > 180 | 105 | inhibitory |  |  |  |  | 
O=C(NCCc1ccccc1)C1C(=O)c2ccc(S(=O)(=O)c3ccc4c(c3)C(=O)C(C(=O)NCCc3ccccc3)C4=O)cc2C1=O (stereo not shown) [Example 33, 5,5′-sulphonylbis(1,3-dioxo-indan-2-carboxylic acid (2-phenylethyl)-amide)] | 1600 |  |  | inhibitory | 67 | 76 | inhibition | efficacy | 
O=C(c1ccc2c(c1)C(=O)C(C(=O)NCCc1ccccc1)C2=O)c1ccc2c(c1)C(=O)C(C(=O)NCCc1ccccc1)C2=O (stereo not shown) [Example 20, 5,5′-carbonylbis(1,3-dioxo-indan-2-carboxylic acid (2-phenylethyl)-amide)] | 5750 | > 145 | > 145 |  | 83 | 92 |  |  | microsomal CLint at 0.5 μM ([2]; Human microsomes, compound conc = 0.5 μM, n = 1, read-out: Human microsome stability Intrinsic Clearance Clint (ml/min/mg protein)): < 9.5 mL/min/mg; intrinsic clearance in human microsome assay ([2]; human microsomes): low intrinsic clearance; stability in human microsome assay ([2]; human microsomes): excellent stability; intrinsic clearance in mouse microsome assay ([3]; mouse microsomes): low intrinsic clearance; stability in mouse microsome assay ([3]; mouse microsomes): excellent stability
Cc1ncc2n1-c1ccc(Cl)cc1C(c1ccccc1F)=NC2 [Midazolam, midazolam, reference compound] |  |  | 5.3 |  |  |  |  |  | Human microsome stability Half life t1/2 [2, 6]: 4 min
O=C(NC1CC1)C1C(=O)c2ccc(S(=O)(=O)c3ccc4c(c3)C(=O)C(C(=O)NC3CC3)C4=O)cc2C1=O (stereo not shown) [Example 34, 5,5′-sulphonylbis(1,3-dioxo-indan-2-carboxylic acid (cyclopropyl)-amide)] | 1060 | > 180 | 86.5 | inhibitory | 60 | 81 | modulate the activity of normalized P-selectin; also recorded: inhibition | efficacy | 
O=C(O)CCNC(=O)C1C(=O)c2ccc(C(=O)c3ccc4c(c3)C(=O)C(C(=O)NCCC(=O)O)C4=O)cc2C1=O (stereo not shown) [Example 32, 5,5′-carbonylbis(3-[(1,3-dioxo-indane-2-carbonyl)-amino]-propionic acid)] | 2990 | 54 | > 180 | inhibitory | 86 | 91 | modulate the activity of normalized P-selectin; also recorded: inhibition | efficacy | 
O=C(c1ccc2c(c1)C(=O)C(C(=O)Nc1ccc3c(c1)OCCO3)C2=O)c1ccc2c(c1)C(=O)C(C(=O)Nc1ccc3c(c1)OCCO3)C2=O (stereo not shown) [Example 29, 5,5′-carbonylbis(1,3-dioxo-indan-2-carboxylic acid (n-(2,3-dihydro-benzo[1,4]dioxin-6-yl))-amide)] | 3020 |  |  | inhibitory |  |  | modulate the activity of normalized P-selectin; also recorded: inhibition | efficacy | 
O=C(c1ccc2c(c1)C(=O)C(C(=O)NCCc1ccc3c(c1)OCO3)C2=O)c1ccc2c(c1)C(=O)C(C(=O)NCCc1ccc3c(c1)OCO3)C2=O (stereo not shown) [Example 18, 5,5′-carbonylbis(1,3-dioxo-indan-2-carboxylic acid (2-benzo[1,3]dioxol-5-yl-ethyl)-amide)] | 1810 |  |  | inhibitory | 65 | 75 |  |  | 
O=C(c1ccc2c(c1)C(=O)C(C(=O)NCCc1ccc(F)cc1)C2=O)c1ccc2c(c1)C(=O)C(C(=O)NCCc1ccc(F)cc1)C2=O (stereo not shown) [Example 22, 5,5′-carbonylbis(1,3-dioxo-indan-2-carboxylic acid (2-(4-fluorophenyl)ethyl)-amide)] | 1870 | 59.7 | 47.9 | inhibitory | 66 | 76 | modulate the activity of normalized P-selectin; also recorded: inhibition | efficacy | 
COc1ccc(NC(=O)C2C(=O)c3ccc(C(=O)c4ccc5c(c4)C(=O)C(C(=O)Nc4ccc(OC)cc4)C5=O)cc3C2=O)cc1 (stereo not shown) [Example 31, 5,5′-carbonylbis(1,3-dioxo-indan-2-carboxylic acid (4-methoxyphenyl)-amide)] | 1740 |  |  | inhibitory |  |  | modulate the activity of normalized P-selectin; also recorded: inhibition | efficacy | 
COc1ccccc1NC(=O)C1C(=O)c2ccc(C(=O)c3ccc4c(c3)C(=O)C(C(=O)Nc3ccccc3OC)C4=O)cc2C1=O (stereo not shown) [Example 28, 5,5′-carbonylbis(1,3-dioxo-indan-2-carboxylic acid (2-methoxyphenyl)-amide)] | 640 | > 180 | 52.2 | inhibitory | 82 | 65 | modulate the activity of normalized P-selectin; also recorded: inhibition | efficacy | 
COc1cccc(NC(=O)C2C(=O)c3ccc(S(=O)(=O)c4ccc5c(c4)C(=O)C(C(=O)Nc4cccc(OC)c4)C5=O)cc3C2=O)c1 (stereo not shown) [Example 36, 5,5′-sulphonylbis(1,3-dioxo-indan-2-carboxylic acid (3-methoxyphenyl)-amide)] | 1190 |  |  |  | 65 | 70 | modulate the activity of normalized P-selectin; also recorded: inhibition | efficacy | 
COC(=O)[C@@H]1C[C@H]1C(=O)C1C(=O)c2ccc(S(=O)(=O)c3ccc4c(c3)C(=O)C(C(=O)[C@@H]3C[C@H]3C(=O)OC)C4=O)cc2C1=O (stereo partly drawn) [Example 218, methyl (1R,2R)-2-[5-({2-[(1R,2R)-2-(methoxycarbonyl)cyclopropanecarbonyl]-1,3-dioxo-2,3-dihydro-1H-inden-5-yl}sulfonyl)-1,3-dioxo-2,3-dihydro-1H-indene-2-carbonyl]cyclopropane-1-carboxylate] | 4000 |  |  |  | 67 | 92 |  |  | 
COC(=O)CCC(=O)C1C(=O)c2ccc(C(=O)c3ccc4c(c3)C(=O)C(C(=O)CCC(=O)OC)C4=O)cc2C1=O (stereo not shown) [Example 230, methyl 4-{5-[2-(4-methoxy-4-oxobutanoyl)-1,3-dioxo-2,3-dihydro-1H-indene-5-carbonyl]-1,3-dioxo-2,3-dihydro-1H-inden-2-yl}-4-oxobutanoate] |  |  |  |  |  |  |  |  | inhibition at 1 µM ([1]; 1 μM inhibitor, read-out: % inhibition of PF4 tetramer formation at single concentration of inhibitor): 1%; inhibition at 3 µM ([1]; 3 μM inhibitor (column A), read-out: % inhibition of PF4 tetramer formation at single concentration of inhibitor): 24%
O=C(c1ccc2c(c1)C(=O)C(C(=O)C1CCN(C(=O)OCc3ccccc3)C1)C2=O)c1ccc2c(c1)C(=O)C(C(=O)C1CCN(C(=O)OCc3ccccc3)C1)C2=O (stereo not shown) [Example 159, benzyl 3-[5-(2-{1-[(benzyloxy)carbonyl]pyrrolidine-3-carbonyl}-1,3-dioxo-2,3-dihydro-1H-indene-5-carbonyl)-1,3-dioxo-2,3-dihydro-1H-indene-2-carbonyl]pyrrolidine-1-carboxylate] | 3800 |  |  |  | 85 | 90 |  |  | 

Reference: patent publication US20250281424A1 (New York Blood Center, Inc, priority 2020, published 2025)
